Test results published in paper PMC11348465, “Pharmacochemical Study of Multitarget Amino Acids’ Hybrids: Design, Synthesis, In vitro, and In silico Studies” (Medicinal Chemistry (Shariqah (United Arab Emirates), 2024).
Each block holds one compound with its values, some of them ahead of it.

Assays:
[1] = Inhibition of linoleic acid peroxidation (AAPH-induced)
Protocol: Our group evaluated the in vitro study as reported previously. Ten 16 mM sodium linoleate solution microliters were added to the UV cuvette containing 93 µL of a 0.05 M phosphate buffer, pH 7.4, and 10 µL of the tested compounds (final concentration 100 µM). The oxidation reaction started at 37 °C under air by adding 50 µL of the free radical initiator AAPH (40 mM). Oxidation was carried out and monitored at 234 nm. DMSO under the same conditions was used as a negative control. Trolox was used as the appropriate standard (positive control). The results are given in Table S1 in the supplementary material.
We used the water-soluble 2, 2’-azobis(2-amidinopropane) hydrochloride (AAPH) to generate in vitro peroxyl radicals through spontaneous thermal decomposition, which resembles cellular lipid peroxidation due to the activity of the undertaken radicals. The anti-lipid peroxidation activities were compared to a well-known antioxidant, i.e., Trolox (Table S1 in the supplementary material). […] In general, the anti-lipid peroxidation ranged from 8-99%. Except for acids 11, 12, 17, 19, 21, 22, 24, 25, and 28, which present high antioxidant activities (on the high % level), the other cinnamic acids present low or medium activity.

ovine COX-2 = target: T1, ovine COX-2 (Ovis aries, UniProt P79208); assay: Cyclooxygenase-2 inhibition study; type: biochemical; conditions: for IC50: read-out: COX-2 inhibition (IC50); for COX-2 inhibition (%): % inhibition at 100 µM
T1 construct: purchased Cayman (USA)
T1 sequence (P79208 17-603): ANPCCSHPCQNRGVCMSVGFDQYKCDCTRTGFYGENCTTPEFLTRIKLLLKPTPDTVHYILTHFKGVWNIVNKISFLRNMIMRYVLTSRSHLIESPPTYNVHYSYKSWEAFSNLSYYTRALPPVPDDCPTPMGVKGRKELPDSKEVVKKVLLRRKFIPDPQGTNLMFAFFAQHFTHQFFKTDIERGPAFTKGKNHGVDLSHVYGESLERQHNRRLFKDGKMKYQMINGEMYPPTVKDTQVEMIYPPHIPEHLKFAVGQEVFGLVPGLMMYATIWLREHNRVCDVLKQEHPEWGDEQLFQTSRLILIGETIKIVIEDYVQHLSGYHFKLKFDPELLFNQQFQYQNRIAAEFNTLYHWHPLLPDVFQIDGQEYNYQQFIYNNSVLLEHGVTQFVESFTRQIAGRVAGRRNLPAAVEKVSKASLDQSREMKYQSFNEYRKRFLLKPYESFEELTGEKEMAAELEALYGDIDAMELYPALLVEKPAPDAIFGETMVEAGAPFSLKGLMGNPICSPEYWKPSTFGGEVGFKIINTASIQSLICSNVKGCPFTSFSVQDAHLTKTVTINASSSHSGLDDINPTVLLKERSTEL
Protocol: The in vitro study of cyclooxygenase (COX) activity was determined by using arachidonic acid (AA) as the substrate and N,N,N’,N’-tetramethylphenylenediamine (TMPD) as the co-substrate. […] The absorption due to the spontaneous oxidation of TMPD was subtracted from the initial rate of oxidation observed in the presence of AA. […] A blank determination was used first to serve as a negative control. Indomethacin was used as a reference COX-2 inhibitor (positive control).
The role of COX-2 in neurodegenerative diseases has been reported, and COX-2 inhibition is considered of high importance as a therapeutic tool. The designed derivatives were tested for their COX-2 inhibition activity on the ovine COX-2 enzyme. […] Indomethacin was used as a reference compound.

[2] = target: T2, soybean lipoxygenase (LOX-1) (Glycine max, UniProt P08170); assay: Soybean lipoxygenase inhibition study; type: biochemical; conditions: for LOX inhibition (%): % inhibition at 100 µM; for IC50: read-out: LOX inhibition (IC50)
T2 construct: purchased Sigma Chemical, Co. (St Louis, MO, USA)
T2 sequence (P08170 1-839): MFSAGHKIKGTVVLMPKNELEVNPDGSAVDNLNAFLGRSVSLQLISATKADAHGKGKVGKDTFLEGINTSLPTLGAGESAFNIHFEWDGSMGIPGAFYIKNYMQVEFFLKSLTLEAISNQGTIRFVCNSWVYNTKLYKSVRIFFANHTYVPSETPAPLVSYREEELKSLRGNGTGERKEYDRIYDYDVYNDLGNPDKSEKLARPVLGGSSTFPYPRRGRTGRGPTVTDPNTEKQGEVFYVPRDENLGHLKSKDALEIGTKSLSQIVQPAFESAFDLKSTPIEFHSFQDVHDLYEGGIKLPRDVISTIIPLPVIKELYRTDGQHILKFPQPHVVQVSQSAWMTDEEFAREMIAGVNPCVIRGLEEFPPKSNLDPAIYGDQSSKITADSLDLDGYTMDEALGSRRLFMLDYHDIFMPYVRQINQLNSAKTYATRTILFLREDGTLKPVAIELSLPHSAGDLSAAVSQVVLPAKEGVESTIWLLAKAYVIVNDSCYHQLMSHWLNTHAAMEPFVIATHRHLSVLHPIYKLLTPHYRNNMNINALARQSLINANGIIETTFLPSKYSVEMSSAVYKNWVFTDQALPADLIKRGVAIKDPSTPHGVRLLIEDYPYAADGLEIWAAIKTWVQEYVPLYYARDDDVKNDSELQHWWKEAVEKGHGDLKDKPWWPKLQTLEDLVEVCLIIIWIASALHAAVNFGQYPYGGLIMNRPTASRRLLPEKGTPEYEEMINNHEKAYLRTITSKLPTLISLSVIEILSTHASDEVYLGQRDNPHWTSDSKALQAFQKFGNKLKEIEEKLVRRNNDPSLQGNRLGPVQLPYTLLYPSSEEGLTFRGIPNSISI
Protocol: Our group evaluated an in vitro study as reported previously. The tested hybrids were incubated at room temperature with sodium linoleate (100 µM) and 200 µL of enzyme solution (1/9 X 10^-4 w/v in saline). […] Different concentrations were used for the determination of IC50. A blank determination was used as a negative control.
Due to the limited work on sufficiently purified human ALOX-5 isoenzyme, most of the published research was performed on the soybean homolog. […] This study used the soybean isoenzyme LOX-1, which exerts maximal activity at pH 9.0 [72].

SMILES: CCOC(=O)CNC(=O)/C=C/c1ccc(OCc2ccc(Br)cc2)cc1 [Compound 11a, Ethyl (E)-(3-(4-((4-bromobenzyl)oxy)phenyl)acryloyl)glycinate]
AAPH inhibition (%, at 100 µM) [1]: 38%
IC50 (ovine COX-2): 6 µM

SMILES: COC(=O)CCCNC(=O)/C=C/c1ccc(OCc2ccc(Br)cc2)cc1 [Compound 11b]
AAPH inhibition (%, at 100 µM) [1]: 19%
LOX inhibition (%) [2]: 30%

SMILES: COC(=O)CC[C@H](NC(=O)/C=C/c1ccc(OCc2ccc(Br)cc2)cc1)C(=O)OC [Compound 11c]
AAPH inhibition (%, at 100 µM) [1]: 92%

SMILES: COC(=O)CC[C@H](NC(=O)/C=C/c1cccc(Oc2ccccc2)c1)C(=O)OC [Compound 12c]
AAPH inhibition (%, at 100 µM) [1]: 65%
IC50 [2]: 60 µM

SMILES: CCOC(=O)CNC(=O)/C=C/c1ccc(C(F)(F)F)cc1 [Compound 13a]
AAPH inhibition (%, at 100 µM) [1]: 8%
LOX inhibition (%) [2]: 31%

SMILES: COC(=O)CC[C@H](NC(=O)/C=C/c1ccc(C(F)(F)F)cc1)C(=O)OC [Compound 13c]
AAPH inhibition (%, at 100 µM) [1]: 37%
IC50 [2]: 80 µM

SMILES: O=C(O)/C=C/c1ccc(Br)cc1 [Compound 14]
AAPH inhibition (%, at 100 µM) [1]: 13%
IC50 (ovine COX-2): 100 µM

SMILES: CCOC(=O)CNC(=O)/C=C/c1ccc(Br)cc1 [Compound 14a]
AAPH inhibition (%, at 100 µM) [1]: 69%
IC50 (ovine COX-2): 65.5 µM

SMILES: COC(=O)CCCNC(=O)/C=C/c1ccc(Br)cc1 [Compound 14b]
AAPH inhibition (%, at 100 µM) [1]: 11%
LOX inhibition (%) [2]: 12%

SMILES: COC(=O)CC[C@H](NC(=O)/C=C/c1ccc(Br)cc1)C(=O)OC [Compound 14c]
AAPH inhibition (%, at 100 µM) [1]: 38%
IC50 [2]: 75 µM

SMILES: CCOC(=O)CNC(=O)/C=C/c1cccc(Br)c1 [Compound 15a]
AAPH inhibition (%, at 100 µM) [1]: 26%
IC50 [2]: 57.5 µM

SMILES: COC(=O)CCCNC(=O)/C=C/c1cccc(Br)c1 [Compound 15b]
AAPH inhibition (%, at 100 µM) [1]: 27%
COX-2 inhibition (%) (ovine COX-2): 43%

SMILES: COC(=O)CC[C@H](NC(=O)/C=C/c1cccc(Br)c1)C(=O)OC [Compound 15c]
IC50 [2]: 75 µM

SMILES: O=C(O)/C=C/c1ccc(Cl)cc1 [Compound 16]
inhibition at 100 µM (ovine COX-2): 46%

SMILES: CCOC(=O)CNC(=O)/C=C/c1ccc(Cl)cc1 [Compound 16a]
IC50 (ovine COX-2): 63 µM

SMILES: COC(=O)CCCNC(=O)/C=C/c1ccc(Cl)cc1 [Compound 16b]
AAPH inhibition (%, at 100 µM) [1]: 8%
IC50 (ovine COX-2): 92.5 µM

SMILES: COC(=O)CC[C@H](NC(=O)/C=C/c1ccc(Cl)cc1)C(=O)OC [Compound 16c]
AAPH inhibition (%, at 100 µM) [1]: 26%

SMILES: O=C(O)/C=C/c1cccc2ccccc12 [Compound 17]
AAPH inhibition (%, at 100 µM) [1]: 78%

SMILES: CCOC(=O)CNC(=O)/C=C/c1cccc2ccccc12 [Compound 17a]
LOX inhibition (%) [2]: 23%

SMILES: COC(=O)CCCNC(=O)/C=C/c1ccc(OC)c(OC)c1 [Compound 18b]
AAPH inhibition (%, at 100 µM) [1]: 75%
LOX inhibition (%) [2]: 40%

SMILES: COC(=O)CC[C@H](NC(=O)/C=C/c1ccc(OC)c(OC)c1)C(=O)OC [Compound 18c]
AAPH inhibition (%, at 100 µM) [1]: 74%
IC50 [2]: 57.5 µM

SMILES: O=C(O)/C=C/c1ccc2c(c1)OCO2 [Compound 20]
AAPH inhibition (%, at 100 µM) [1]: 31%
inhibition at 100 µM ([2]; read-out: LOX inhibition (%)): 27%

SMILES: COC(=O)CCCNC(=O)/C=C/c1ccc2c(c1)OCO2 [Compound 20b]
AAPH inhibition (%, at 100 µM) [1]: 9%
IC50 [2]: 67.5 µM

SMILES: COc1cc(/C=C/C(=O)O)ccc1O [Compound 24]
AAPH inhibition (%, at 100 µM) [1]: 86%
inhibition at 100 µM (ovine COX-2): 14%

SMILES: CCOC(=O)CNC(=O)/C=C/c1ccc(O)cc1 [Compound 25a]
AAPH inhibition (%, at 100 µM) [1]: 39%

SMILES: O=C(O)/C=C/c1ccc(F)cc1 [Compound 27]
inhibition at 100 µM (ovine COX-2): 46%

SMILES: CCOC(=O)CNC(=O)/C=C/c1ccc(F)cc1 [Compound 27a]
AAPH inhibition (%, at 100 µM) [1]: 78%

SMILES: O=C(O)/C=C/c1ccc(O)c(O)c1 [Compound 28, trans-caffeic acid]
AAPH inhibition (%, at 100 µM) [1]: 80%
inhibition at 100 µM (ovine COX-2): 6%

SMILES: Cc1c(C)c2c(c(C)c1O)CCC(C)(C(=O)O)O2 (stereo not shown) [Trolox, reference compound]
AAPH inhibition (%, at 100 µM) [1]: 92%

Continued, in another order:

LOX inhibition (%) [2]: 28%
SMILES: CCOC(=O)CNC(=O)/C=C/c1cc(OC)ccc1OC [Compound 19a]
AAPH inhibition (%, at 100 µM) [1]: 89%

COX-2 inhibition (%) (ovine COX-2): 20%
SMILES: COC(=O)CCCNC(=O)/C=C/c1cc(OC)ccc1OC [Compound 19b]
AAPH inhibition (%, at 100 µM) [1]: 70%

LOX inhibition (%) [2]: 7%
SMILES: COC(=O)CC[C@H](NC(=O)/C=C/c1cc(OC)ccc1OC)C(=O)OC [Compound 19c]
AAPH inhibition (%, at 100 µM) [1]: 64%

LOX inhibition (%) [2]: 19%
SMILES: COC(=O)CC[C@H](NC(=O)/C=C/c1ccc2c(c1)OCO2)C(=O)OC [Compound 20c]
AAPH inhibition (%, at 100 µM) [1]: 20%

IC50 [2]: 100 µM
SMILES: COC(=O)CC[C@H](NC(=O)/C=C/c1cccs1)C(=O)OC [Compound 21c]
AAPH inhibition (%, at 100 µM) [1]: 41%

IC50 (ovine COX-2): 61 µM
SMILES: COC(=O)CCCNC(=O)C=Cc1ccccc1 [Compound 22b]
AAPH inhibition (%, at 100 µM) [1]: 24%

LOX inhibition (%) [2]: 10%
SMILES: COC(=O)CC[C@H](NC(=O)/C=C/c1ccccc1)C(=O)OC [Compound 22c]
AAPH inhibition (%, at 100 µM) [1]: 39%

IC50 (ovine COX-2): 35 µM
SMILES: CCOC(=O)CNC(=O)/C=C/C=C/c1ccccc1 [Compound 23a]
AAPH inhibition (%, at 100 µM) [1]: 85%

IC50 (ovine COX-2): 55 µM
SMILES: COC(=O)CCCNC(=O)/C=C/C=C/c1ccccc1 [Compound 23b]
AAPH inhibition (%, at 100 µM) [1]: 78%

IC50 (ovine COX-2): 77.5 µM
SMILES: CCOC(=O)CNC(=O)/C=C/c1ccc(C#N)cc1 [Compound 26a]
AAPH inhibition (%, at 100 µM) [1]: 37%

IC50 (ovine COX-2): 32.5 µM
SMILES: COC(=O)CCCNC(=O)/C=C/c1ccc(C#N)cc1 [Compound 26b]
AAPH inhibition (%, at 100 µM) [1]: 3%

LOX inhibition (%) [2]: 10%
SMILES: COC(=O)CC[C@H](NC(=O)/C=C/c1ccc(C#N)cc1)C(=O)OC [Compound 26c]

IC50 (ovine COX-2): 75 µM
SMILES: COC(=O)CCCNC(=O)/C=C/c1ccc(F)cc1 [Compound 27b]
AAPH inhibition (%, at 100 µM) [1]: 22%

COX-2 inhibition (%) (ovine COX-2): 4%
SMILES: COC(=O)CCCNC(=O)/C=C/c1ccc2c(c1)OC(C)(C)O2 [Compound 29b]

IC50 (ovine COX-2): 58 µM
SMILES: CCOC(=O)CNC(=O)/C=C/c1ccc(OC(C)=O)cc1 [Compound 30a]

IC50 (ovine COX-2): 50 µM
SMILES: COC(=O)CCCNC(=O)/C=C/c1ccc(OC(C)=O)cc1 [Compound 30b]
AAPH inhibition (%, at 100 µM) [1]: 9%
